Measurements: patent US7297714B2, “Inhibitors of cathepsin S” (IRM LLC, priority 2003, dated 2007)

Columns and labels:
Assay type in all cases: biochemical
Cathepsin L = Cathepsin L (Homo sapiens, UniProt P07711); experiment: Cathepsin L inhibition assay, selectivity for cathepsin S over cathepsin L; details: ratio of cathepsin L inhibition constant to cathepsin S inhibition constant
Description: The optimal substrate for cathepsin L, acetyl-histidine-lysine-phenylalanine-lysine-amino carbamoyl coumarin, was identified from screening a combinatorial library of fluorogenic peptide substrates (Harris, J. L., B. J. Backes, et al.; Proc Natl Acad Sci USA 2000, 97(14), 7754-9). Kinetic measurements are performed in a total reaction volume of 30 μl in 384-well microtiter plates. Cathepsin L, at a final concentration of 0.1 nM (active site), is incubated with the compounds at twelve varying concentrations in a buffer containing 100 mM NaAc (pH5.5), 1 mM EDTA, 100 mM NaCl, 0.01% Brij-35 for 20 minutes at room temperature. Control reactions in the absence of inhibitor are performed in replicates of 24. The reactions are initiated by adding the substrate, acetyl-histidine-lysine-phenylalanine-lysine-amino carbamoyl coumarin, to a final concentration of 20 μM. The rate of substrate hydrolysis is measured by monitoring the increase in fluorescence at an excitation wavelength of 380 nm and an emission wavelength of 450 nm that results from cleavage of the aniline bond in the substrate by the enzyme. The apparent inhibition constants for the compounds are determined from the enzyme progress curves (Kuzmic, P., K. C. Elrod, et al., Anal Biochem 2000, 286(1), 45-50) and are then used to calculate the inhibition constants for competitive inhibitors.
(§1) Selectivity for cathepsin S in the presence of cathepsin isozymes was determined by the ratio of the cathepsin isozyme inhibition constant of a compound of the present invention to the cathepsin S inhibition constant of the same compound. Preferred compounds of the present invention selective for cathepsin S have ratios of greater than 10. More preferred compounds of the present invention selective for cathepsin S have ratios of greater than 100. Most preferred compounds of the present invention selective for cathepsin S have ratios of greater than 1000.

Caspase 1 = molecular target: T1, Caspase 1 (Homo sapiens, UniProt P29466); experiment: Inhibition Assay for Caspase 1; details: Caspase-1 inhibition constant; pH 7.4; read-out: Ki Cas-1
T1 sequence (P29466 120-297 limits assumed): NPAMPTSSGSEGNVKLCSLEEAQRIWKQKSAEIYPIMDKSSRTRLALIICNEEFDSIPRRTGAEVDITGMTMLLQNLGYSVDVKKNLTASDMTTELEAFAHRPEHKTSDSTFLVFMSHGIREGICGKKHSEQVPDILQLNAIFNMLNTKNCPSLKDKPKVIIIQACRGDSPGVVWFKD
T1 sequence (P29466 317-404 limits assumed): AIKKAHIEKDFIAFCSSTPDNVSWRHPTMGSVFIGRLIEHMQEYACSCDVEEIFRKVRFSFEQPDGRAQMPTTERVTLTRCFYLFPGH
Description: (§2) The widely used substrate for caspase 1, acetyl-tryptophan-glutamate-histidine-spartic acid-amino carbamoyl coumarin, was used. Kinetic measurements are performed in a total reaction volume of 30 μl in 384-well microtiter plates. Caspase 1, at a final concentration of 0.2-1 nM (active site), is incubated with the compounds at twelve varying concentrations in a buffer containing 20 mM Hepes (pH 7.4), 1 mM EDTA, 100 mM NaCl, 0.1% CHAPS, 10% sucrose, 10 mM DTT for 20 minutes at room temperature. Control reactions in the absence of inhibitor are performed in replicates of 12. The reactions are initiated by adding the substrate to a final concentration of 4 μM. The rate of substrate hydrolysis is measured by monitoring the increase in fluorescence at an excitation wavelength of 380 nm and an emission wavelength of 450 nm that results from cleavage of the aniline bond in the substrate by the enzyme. The apparent inhibition constants for the compounds are determined from the enzyme progress curves (Kuzmic, Elrod et al. 2000) and are then used to calculate the inhibition constants for competitive inhibitors (Km=8 μM).

Cathepsin B = Cathepsin B (Homo sapiens, UniProt P07858); experiment: Cathepsin B inhibition assay, selectivity for cathepsin S over cathepsin B; details: ratio of cathepsin B inhibition constant to cathepsin S inhibition constant
Description: The optimal substrate for cathepsin B, acetyl-histidine-proline-valine-lysine-amino carbamoyl coumarin, was identified from screening a combinatorial library of fluorogenic peptide substrates (Harris, J. L., B. J. Backes, et al., Proc Natl Acad Sci US A 2000, 97(14), 7754-9). Kinetic measurements are performed in a total reaction volume of 30 μl in 384-well microtiter plates. Cathepsin B, at a final concentration of 1.5 nM (active site), is incubated with the compounds at twelve varying concentrations in a buffer containing 100 mM NaAc (pH5.5), 1 mM EDTA, 100 mM NaCl, 0.01% Brij-35 for 20 minutes at room temperature. Control reactions in the absence of inhibitor are performed in replicates of 24. The reactions are initiated by adding the substrate, acetyl-histidine-proline-valine-lysine-amino carbamoyl coumarin, to a final concentration of 10 μM. The rate of substrate hydrolysis is measured by monitoring the increase in fluorescence at an excitation wavelength of 380 nm and an emission wavelength of 450 nm that results from cleavage of the aniline bond in the substrate by the enzyme. The apparent inhibition constants for the compounds are determined from the enzyme progress curves (Kuzmic, P., K. C. Elrod, et al., Anal Biochem 2000, 286(1), 45-50) and are then used to calculate the inhibition constants for competitive inhibitors.
as §1

Caspase 8 = Caspase 8 (Homo sapiens, UniProt Q14790); experiment: Inhibition Assay for Caspase 8; details: Caspase-8 inhibition constant; pH 7.4; read-out: Ki Cas-8
Description: as §2, with “for caspase 8, […]-amino carbamoyl” for “for caspase 1, acetyl-tryptophan-glutamate-histidine-spartic acid-amino carbamoyl”, “plates. Caspase 8, at a” for “plates. Caspase 1, at a”, “concentration of 2 μM. The” for “concentration of 4 μM. The”, “competitive inhibitors (Km=25.7 μM).” for “competitive inhibitors (Km=8 μM).”

Sequence of Caspase 8 (Q14790 217-374 limits assumed, species assumed): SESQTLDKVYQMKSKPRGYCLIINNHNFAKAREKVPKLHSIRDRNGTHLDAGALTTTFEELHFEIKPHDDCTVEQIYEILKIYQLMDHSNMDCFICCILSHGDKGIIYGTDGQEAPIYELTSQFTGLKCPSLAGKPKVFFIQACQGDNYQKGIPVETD
Sequence of Caspase 8 (Q14790 385-479 limits assumed, species assumed): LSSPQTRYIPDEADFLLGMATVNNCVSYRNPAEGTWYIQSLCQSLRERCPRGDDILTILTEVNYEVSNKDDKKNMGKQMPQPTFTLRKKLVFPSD
Sequence of Cathepsin L (P07711 114-333, species assumed): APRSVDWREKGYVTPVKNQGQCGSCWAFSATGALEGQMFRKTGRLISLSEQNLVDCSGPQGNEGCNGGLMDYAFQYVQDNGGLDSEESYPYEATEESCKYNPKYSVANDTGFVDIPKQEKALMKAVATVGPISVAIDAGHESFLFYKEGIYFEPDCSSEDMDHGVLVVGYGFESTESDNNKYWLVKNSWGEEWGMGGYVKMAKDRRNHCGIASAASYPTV

Structure (SMILES)	Selectivity for Cat. S over Cat. L (Cathepsin L)	Ki (Caspase 1) [µM]	Selectivity for Cat. S over Cat. B (Cathepsin B)	Ki (Caspase 8) [µM]
O=C[C@H](CC(=O)O)NC(=O)[C@@H](CC(=O)N1CCOCC1)CC1CCCC1 [Example 4, (3S)-[(2R)-Cyclopentylmethyl-4-morpholin-4-yl-4-oxo-butyrylamino]-4-oxo-butyric acid]	++ (++, >100)	> 10	+++ (+++, >1000)	> 10
O=C1C[C@H](NC(=O)[C@@H](CC(=O)N2CCOCC2)CC2CCCCC2)C(O)O1 (stereo partly drawn) [Example 6, (3S)-{(2R)-Cyclohexylmethyl-4-morpholin-4-yl-4-oxo-butyrylamino}-4-oxo-butyric acid]	++ (++, >100)	> 100	+++ (+++, >1000)	> 10
O=C1C[C@H](NC(=O)[C@H](CC2CCCC2)NC(=O)c2ccc(-c3cccc(F)c3)o2)C(O)O1 (stereo partly drawn) [Example 1, (3S)-(3-Cyclopentyl-(2S)-{[5-(3-fluoro-phenyl)-furan-2-carbonyl]-amino}-propionylamino)-4-oxo-butyric acid]	++ (++, >100)	> 1	+++ (+++, >1000)	> 1
O=C1C[C@H](NC(=O)[C@H](CC2CCCC2)NC(=O)N2CCOCC2)C(O)O1 (stereo partly drawn) [Example 2, (3S)-{3-Cyclopentyl-(2S)-[(morpholine-4-carbonyl)-amino]-propionylamino}-4-oxo-butyric acid]	++ (++, >100)	> 100	+++ (+++, >1000)	> 10
O=C1C[C@H](NC(=O)O[C@@H](CC2CCCC2)Cn2cnc3cc(Cl)c(Cl)cc32)C(O)O1 (stereo partly drawn) [Example 5, (3S)-[(1S)-Cyclopentylmethyl-2-(5,6-dichloro-benzoimidazol-1-yl)-ethoxycarbonylamino]-4-oxo-butyric acid]	+ (+, >10)	> 10	+++ (+++, >1000)	> 10
CC(C)(C)C[C@H](OC(=O)N[C@H]1CC(=O)OC1O)C(=O)N1CCOCC1 (stereo partly drawn) [Example 9, (3S)-[3,3-Dimethyl-(1S)-(morpholine-4-carbonyl)-butoxycarbonylamino]-4-oxo-butyric acid]	++ (++, >100)	> 100	++ (++, >100)	> 100
O=C1C[C@H](NC(=O)O[C@@H](CC2CCCCC2)C(=O)N2CCOCC2)C(O)O1 (stereo partly drawn) [Example 10, (3S)-[2-cyclohexyl-(1S)-(morpholin-4-carbonyl)-ethoxycarbonylamino]-4-oxo-butyric acid]	+++ (+++, >1000)	> 100	+++ (+++, >1000)	> 100
O=C1C[C@H](NC(=O)[C@H](CC2CCCCC2)NS(=O)(=O)c2cccc(OC(F)(F)F)c2)C(O)O1 (stereo partly drawn) [Example 7, (3S)-[3-Cyclohexyl-(2S)-(3-trifluoromethoxy-benzenesulfonylamino)-propionylamino]-4-oxo-butyric acid]	++ (++, >100)	> 10	+++ (+++, >1000)	> 10
O=C1C[C@H](NC(=O)[C@H](CC2CCCCC2)OC(=O)N2CCOCC2)C(O)O1 (stereo partly drawn) [Example 3, (3S)-{3-cyclohexyl-(2S)-(morpholine-4-carbonyloxy)-propionylamino}-4-oxo-butyric acid]	+ (+, >10)	> 10	+++ (+++, >1000)	> 10
O=C1C[C@H](NC(=O)[C@H](CC2CCCC2)NS(=O)(=O)c2cccc(OC(F)(F)F)c2)C(O)O1 (stereo partly drawn) [Example 8, (3S)-[3-Cyclopentyl-(2S)-(3-trifluoromethoxy-benzenesulfonylamino)-propionylamino]-4-oxo-butyric acid]	++ (++, >100)	> 100	+++ (+++, >1000)	> 10
